Source: patent US20250114345A1, “COMPOUNDS AND COMPOSITIONS AS CBP/P300 DEGRADERS AND USES THEREOF” (Oncopia Therapeutics, Inc. d/b/a/ SK Life Science Labs, priority 2023, published 2025)

Molecular target: T1, p300 (Homo sapiens, UniProt Q09472)
T1 construct: host or cells: A549 P300 HiBit cells
Experiment: P300 degradation, HiBit technology in A549 P300 HiBit cells (2 h)
Assay type: cell-based
Conditions: 2 hrs post treatment; for Dmax: A549, A549 P300 HiBit cells; for DC50: A549 P300 HiBit cells
Experimental: p300 and CBP degradation potency and Dmax were determined using in cell western (ICW) assay technology in H1299 cells or HiBit technology in A549 HiBit cells.
A549 P300 HiBit and A549 CBP HiBit cells were plated in separate 384-well, TC treated, white-opaque, flat-bottomed microplate. Cells were plated at a cell density of 0.2×10^4 cells per well in assay media comprised of F-12K, 10% heat inactivated FBS, and 1% penicillin/streptomycin. Assay microplates containing HiBit cells were placed in a 37° C., 5% CO2, tissue culture incubator and left to equilibrate overnight. The next day cells were treated with serial dilutions of test compound made up of 10 mM stock solutions in DMSO. 384-Well plates containing treated cells were then placed back into a 37° C., 5% CO2, tissue culture incubator. Assay microplates containing A549 P300 HiBit cells were incubated for 2 hrs post treatment before P300 destruction was assessed, while microplates containing A549 CBP HiBit cells were incubated for 24 hrs post treatment before CBP destruction was determined. On the day of each assay time point, microplates were removed from the tissue culture incubator and prepared HiBit Lytic detection buffer (Promega, cat #N3O40) was added to each plate. Plates were covered with aluminum foil and incubated for ten minutes at room temperature on an orbital shaker. After incubation, luminescent signal of each plate was measured using the Envision instrument (Perkin Elmer).

T1 sequence (Q09472 whole entry): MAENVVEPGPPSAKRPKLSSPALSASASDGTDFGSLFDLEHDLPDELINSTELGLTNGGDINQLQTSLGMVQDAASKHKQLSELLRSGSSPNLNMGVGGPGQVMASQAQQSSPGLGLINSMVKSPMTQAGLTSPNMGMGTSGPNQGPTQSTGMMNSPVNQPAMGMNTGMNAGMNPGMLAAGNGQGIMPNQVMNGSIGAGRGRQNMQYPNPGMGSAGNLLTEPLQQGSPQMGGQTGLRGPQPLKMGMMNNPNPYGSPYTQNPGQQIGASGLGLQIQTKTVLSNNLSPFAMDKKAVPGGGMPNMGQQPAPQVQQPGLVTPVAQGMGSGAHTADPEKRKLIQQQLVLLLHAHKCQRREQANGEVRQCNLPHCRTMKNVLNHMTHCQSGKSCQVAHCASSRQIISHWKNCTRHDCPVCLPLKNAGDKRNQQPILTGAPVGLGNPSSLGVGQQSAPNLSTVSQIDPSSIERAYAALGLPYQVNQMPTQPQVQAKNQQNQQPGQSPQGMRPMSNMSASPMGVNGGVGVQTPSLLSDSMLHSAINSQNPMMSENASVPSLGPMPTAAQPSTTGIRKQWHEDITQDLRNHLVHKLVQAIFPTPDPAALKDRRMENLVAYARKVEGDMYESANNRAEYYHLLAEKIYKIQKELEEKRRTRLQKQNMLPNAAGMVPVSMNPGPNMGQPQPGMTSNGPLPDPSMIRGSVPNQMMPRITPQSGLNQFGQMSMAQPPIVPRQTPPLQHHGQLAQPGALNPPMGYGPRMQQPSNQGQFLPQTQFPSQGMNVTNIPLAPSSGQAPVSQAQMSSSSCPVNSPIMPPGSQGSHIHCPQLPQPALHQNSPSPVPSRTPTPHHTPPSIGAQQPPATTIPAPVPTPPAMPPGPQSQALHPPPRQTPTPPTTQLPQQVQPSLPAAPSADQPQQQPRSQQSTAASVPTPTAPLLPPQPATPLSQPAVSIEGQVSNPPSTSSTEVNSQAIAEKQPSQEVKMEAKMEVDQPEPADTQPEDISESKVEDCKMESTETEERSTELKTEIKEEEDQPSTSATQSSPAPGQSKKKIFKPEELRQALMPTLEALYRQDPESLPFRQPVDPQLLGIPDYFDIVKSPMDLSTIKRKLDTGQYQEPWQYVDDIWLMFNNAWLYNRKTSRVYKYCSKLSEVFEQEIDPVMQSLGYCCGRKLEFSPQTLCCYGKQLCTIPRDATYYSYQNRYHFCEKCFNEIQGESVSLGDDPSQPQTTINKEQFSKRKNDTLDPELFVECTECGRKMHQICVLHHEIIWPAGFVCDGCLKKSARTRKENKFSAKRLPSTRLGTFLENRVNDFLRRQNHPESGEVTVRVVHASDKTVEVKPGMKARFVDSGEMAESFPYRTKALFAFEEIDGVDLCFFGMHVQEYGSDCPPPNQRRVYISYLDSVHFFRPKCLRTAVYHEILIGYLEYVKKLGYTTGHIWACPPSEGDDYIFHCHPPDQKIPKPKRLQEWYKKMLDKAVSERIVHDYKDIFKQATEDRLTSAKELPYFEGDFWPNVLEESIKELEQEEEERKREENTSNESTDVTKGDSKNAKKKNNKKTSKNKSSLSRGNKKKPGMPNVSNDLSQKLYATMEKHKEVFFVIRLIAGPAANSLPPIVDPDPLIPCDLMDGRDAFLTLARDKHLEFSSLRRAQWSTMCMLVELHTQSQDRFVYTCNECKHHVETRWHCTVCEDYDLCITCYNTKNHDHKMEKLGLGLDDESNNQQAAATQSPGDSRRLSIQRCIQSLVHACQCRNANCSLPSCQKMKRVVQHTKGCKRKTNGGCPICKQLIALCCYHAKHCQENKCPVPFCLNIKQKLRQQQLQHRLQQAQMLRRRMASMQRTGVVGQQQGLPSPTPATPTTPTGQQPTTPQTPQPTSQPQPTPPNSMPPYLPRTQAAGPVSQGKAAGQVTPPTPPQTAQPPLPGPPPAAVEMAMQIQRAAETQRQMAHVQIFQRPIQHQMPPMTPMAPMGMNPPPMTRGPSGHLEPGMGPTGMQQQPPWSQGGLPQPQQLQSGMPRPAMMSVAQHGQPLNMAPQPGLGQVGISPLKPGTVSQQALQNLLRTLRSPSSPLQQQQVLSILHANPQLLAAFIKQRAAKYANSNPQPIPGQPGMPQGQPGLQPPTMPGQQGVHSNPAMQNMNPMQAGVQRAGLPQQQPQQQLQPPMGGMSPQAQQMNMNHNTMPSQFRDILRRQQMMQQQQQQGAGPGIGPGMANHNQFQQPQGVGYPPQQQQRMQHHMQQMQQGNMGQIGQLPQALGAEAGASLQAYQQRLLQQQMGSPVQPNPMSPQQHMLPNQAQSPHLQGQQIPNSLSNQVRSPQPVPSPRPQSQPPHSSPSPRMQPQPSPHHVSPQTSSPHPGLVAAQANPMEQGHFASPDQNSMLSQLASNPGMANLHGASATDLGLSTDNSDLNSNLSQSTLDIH

Row | SMILES | Dmax | DC50
1 | CC(C)c1cc(N(C)c2cnc(-c3ccc(C(=O)NCC#Cc4ccc5occ(C6CCC(=O)NC6=O)c5c4)nc3)cn2)cc2c1n(C)c(=O)n2C (stereo not shown) [Example A59, N-(3-(3-(2,6-dioxopiperidin-3-yl)benzofuran-5-yl)prop-2-yn-1-yl)-5-(5-((7-isopropyl-1,3-dimethyl-2-oxo-2,3-dihydro-1H-benzo [d]imidazol-5-yl)(methyl)amino)pyrazin-2-yl)picolinamide] | > 80% | 1 to 9.9 nM
2 | Cc1cc(-c2ccc(N(C)c3cc4c(c(C(C)C)n3)n(C)c(=O)n4C)cn2)cnc1C(=O)NCC#Cc1ccc2occ(C3CCC(=O)NC3=O)c2c1 (stereo not shown) [Example A60, N-(3-(3-(2,6-dioxopiperidin-3-yl)benzofuran-5-yl)prop-2-yn-1-yl)-5-((4-isopropyl-1,3-dimethyl-2-oxo-2,3-dihydro-1H-imidazo[4,5-c]pyridin-6-yl)(methyl)amino)-5′-methyl-[2,3′-bipyridine]-6′-carboxamide] | < 20% | > 1000 nM
3 | Cc1cc(-c2cc3cccc(-c4ccc5c(c4)n(C)c(=O)n5C)c3cn2)cnc1C(=O)NCC#Cc1ccc2occ([C@H]3CCC(=O)NC3=O)c2c1 [Example A62, (R)-5-(8-(1,3-dimethyl-2-oxo-2,3-dihydro-1H-benzo[d]imidazol-5-yl)isoquinolin-3-yl)-N-(3-(3-(2,6-dioxo-piperidin-3-yl)benzofuran-5-yl)prop-2-yn-1-yl)-3-methylpicolinamide] | > 80% | 1 to 9.9 nM
4 | [2H]C([2H])([2H])N(c1cnc(-c2cnc(C(=O)NCC#Cc3ccc4occ(C5CCC(=O)NC5=O)c4c3)c(C)c2)nc1)c1cc(C(C)C)c2c(c1)n(C)c(=O)n2C (stereo not shown) [Example A65, N-(3-(3-(2,6-dioxopiperidin-3-yl)benzofuran-5-yl)prop-2-yn-1-yl)-5-(5-((7-isopropyl-1,3-dimethyl-2-oxo-2,3-dihydro-1H-benzo [d]imidazol-5-yl)(methyl-d3)amino)pyrimidin-2-yl)-3-methylpicolinamide] | > 80% | 1 to 9.9 nM
5 | CN1C2CCC1CN(c1nc(-c3cccc4cc(-c5ccc(C(=O)NCC#Cc6ccc7occ(C8CCC(=O)NC8=O)c7c6)nc5)ncc34)cc3c1n(C)c(=O)n3C)C2 (stereo not shown) [Example A67, 5-(8-(1,3-dimethyl-4-(8-methyl-3,8-diazabicyclo[3.2.1]octan-3-yl)-2-oxo-2,3-dihydro-1H-imidazo [4,5-c]pyridin-6-yl)isoquinolin-3-yl)-N-(3-(3-(2,6-dioxopiperidin-3-yl)benzofuran-5-yl)prop-2-yn-1-yl)picolinamide] | 60 to 79% | 1 to 9.9 nM
6 | CC(C)c1cc(-c2ncc(N(C)c3cc(C(C)C)c4c(c3)n(C)c(=O)n4C)cn2)cnc1C(=O)NCC#Cc1ccc2occ(C3CCC(=O)NC3=O)c2c1 (stereo not shown) [Example A71, N-(3-(3-(2,6-dioxopiperidin-3-yl)benzofuran-5-yl)prop-2-yn-1-yl)-3-isopropyl-5-(5-((7-isopropyl-1,3-dimethyl-2-oxo-2,3-dihydro-1H-benzo[d]imidazol-5-yl)(methyl)amino)pyrimidin-2-yl)picolinamide] | > 80% | 1 to 9.9 nM
7 | Cn1c(=O)n(C)c2cc(-c3cccc4cc(-c5cnc(C(=O)NCC#Cc6ccc7occ(C8CCC(=O)NC8=O)c7c6)c(Cl)c5)ncc34)ccc21 (stereo not shown) [Example A73, 3-chloro-5-(8-(1,3-dimethyl-2-oxo-2,3-dihydro-1H-benzo[d]imidazol-5-yl)isoquinolin-3-yl)-N-(3-(3-(2,6-dioxopiperidin-3-yl)benzofuran-5-yl)prop-2-yn-1-yl)picolinamide] | > 80% | 1 to 9.9 nM
8 | Cc1cc(-c2ncc(N(C)c3cc4c(c(C(C)C)n3)n(C)c(=O)n4C)cn2)cnc1C(=O)NCC#Cc1ccc2occ(C3CCC(=O)NC3=O)c2c1 (stereo not shown) [Example A74, N-(3-(3-(2,6-dioxopiperidin-3-yl)benzofuran-5-yl)prop-2-yn-1-yl)-5-(5-((4-isopropyl-1,3-dimethyl-2-oxo-2,3-dihydro-1H-imidazo[4,5-c]pyridin-6-yl)(methyl)amino)pyrimidin-2-yl)-3-methylpicolinamide] | < 20% | > 1000 nM
9 | CC(C)c1nc(N2CCCc3nc(-c4ccc(C(=O)NCC#Cc5ccc6occ(C7CCC(=O)NC7=O)c6c5)nc4)ncc32)cc2c1n(C)c(=O)n2C (stereo not shown) [Example A76, N-(3-(3-(2,6-dioxopiperidin-3-yl)benzofuran-5-yl)prop-2-yn-1-yl)-5-(5-(4-isopropyl-1,3-dimethyl-2-oxo-2,3-dihydro-1H-imidazo[4,5-c]pyridin-6-yl)-5,6,7,8-tetrahydropyrido[3,2-d]pyrimidin-2-yl)picolinamide] | < 20% | > 1000 nM
10 | CCn1c(=O)n(C)c2c(C)cc(N3CCOc4nc(-c5ccc(C(=O)NCC#Cc6ccc7occ(C8CCC(=O)NC8=O)c7c6)nc5)ncc43)cc21 (stereo not shown) [Example A77, N-(3-(3-(2,6-dioxopiperidin-3-yl)benzofuran-5-yl)prop-2-yn-1-yl)-5-(5-(3-ethyl-1,7-dimethyl-2-oxo-2,3-dihydro-1H-benzo[d]imidazol-5-yl)-6,7-dihydro-5H-pyrimido[4,5-b][1,4]oxazin-2-yl)picolinamide] | 60 to 79% | 1 to 9.9 nM
11 | Cn1c(=O)n(C)c2c(C3CCOCC3)nc(N3CCCc4nc(-c5ccc(C(=O)NCC#Cc6ccc7occ(C8CCC(=O)NC8=O)c7c6)nc5)ncc43)cc21 (stereo not shown) [Example A78, 5-(5-(1,3-dimethyl-2-oxo-4-(tetrahydro-2H-pyran-4-yl)-2,3-dihydro-1H-imidazo[4,5-c]pyridin-6-yl)-5,6,7,8-tetrahydro-pyrido[3,2-d]pyrimidin-2-yl)-N-(3-(3-(2,6-dioxopiperidin-3-yl)benzofuran-5-yl)prop-2-yn-1-yl)picolinamide] | < 20% | > 1000 nM
12 | Cc1cc(-c2ncc(N(C)c3cc(N4CCOCC4)c4oc(=O)n(C)c4c3)cn2)cnc1C(=O)NCC#Cc1ccc2occ(C3CCC(=O)NC3=O)c2c1 (stereo not shown) [Example A80, N-(3-(3-(2,6-dioxo-piperidin-3-yl)benzofuran-5-yl)prop-2-yn-1-yl)-3-methyl-5-(5-(methyl (3-methyl-7-morpholino-2-oxo-2,3-dihydrobenzo [d]oxazol-5-yl)amino)pyrimidin-2-yl)picolinamide] | < 20% | > 1000 nM
13 | CC(C)c1cc(C(F)(F)c2ccc(-c3ccc(C(=O)NCC#Cc4ccc5occ(C6CCC(=O)NC6=O)c5c4)nc3)nc2)cc2c1n(C)c(=O)n2C (stereo not shown) [Example A81, 5-(difluoro(7-isopropyl-1,3-dimethyl-2-oxo-2,3-dihydro-1H-benzo[d]imidazol-5-yl)methyl)-N-(3-(3-(2,6-dioxopiperidin-3-yl)benzofuran-5-yl)prop-2-yn-1-yl)-[2,3′-bipyridine]-6′-carboxamide] | < 20% | > 1000 nM
14 | [2H]C([2H])([2H])N(c1cnc(-c2cnc(C(=O)NCC#Cc3ccc4occ(C5CCC(=O)NC5=O)c4c3)c(C)c2)nc1)c1cc(C2CCOCC2)c2c(c1)n(C)c(=O)n2C (stereo not shown) [Example A82, 5-(5-((1,3-dimethyl-2-oxo-7-(tetrahydro-2H-pyran-4-yl)-2,3-dihydro-1H-benzo [d]imidazol-5-yl) (methyl-d3)amino)pyrimidin-2-yl)-N-(3-(3-(2,6-dioxo-piperidin-3-yl)benzofuran-5-yl)prop-2-yn-1-yl)-3-methylpicolinamide] | > 80% | 1 to 9.9 nM
